Key:
OATP1B1 [1] = target: T1, OATP1B1 (Homo sapiens, UniProt Q9Y6L6)
T1 sequence (Q9Y6L6 1-691): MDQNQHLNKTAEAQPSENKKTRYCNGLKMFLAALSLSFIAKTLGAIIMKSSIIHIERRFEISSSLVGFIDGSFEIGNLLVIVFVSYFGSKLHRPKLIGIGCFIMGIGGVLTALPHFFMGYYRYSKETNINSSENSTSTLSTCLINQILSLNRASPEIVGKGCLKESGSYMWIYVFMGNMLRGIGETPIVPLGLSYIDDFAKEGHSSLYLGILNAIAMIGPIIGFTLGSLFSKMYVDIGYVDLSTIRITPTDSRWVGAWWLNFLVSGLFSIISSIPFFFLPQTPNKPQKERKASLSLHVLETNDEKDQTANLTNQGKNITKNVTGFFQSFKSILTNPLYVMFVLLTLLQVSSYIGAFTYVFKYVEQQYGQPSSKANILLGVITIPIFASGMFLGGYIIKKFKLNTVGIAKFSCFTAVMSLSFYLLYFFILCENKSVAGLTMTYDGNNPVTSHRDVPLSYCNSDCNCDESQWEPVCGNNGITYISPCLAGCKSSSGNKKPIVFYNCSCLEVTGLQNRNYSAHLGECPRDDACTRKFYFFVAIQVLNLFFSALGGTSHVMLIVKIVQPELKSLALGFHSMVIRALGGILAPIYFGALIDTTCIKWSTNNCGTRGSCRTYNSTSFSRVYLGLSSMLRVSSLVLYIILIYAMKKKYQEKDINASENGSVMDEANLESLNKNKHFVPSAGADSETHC
Text: (§1) The effect of Alisporivir on the OATP1B1, 1B3, and MRP2 substrate valsartan was also investigated.

OATP1B3 [2] = target: T2, OATP1B3 (Homo sapiens, UniProt Q9NPD5)
T2 sequence (Q9NPD5 1-702): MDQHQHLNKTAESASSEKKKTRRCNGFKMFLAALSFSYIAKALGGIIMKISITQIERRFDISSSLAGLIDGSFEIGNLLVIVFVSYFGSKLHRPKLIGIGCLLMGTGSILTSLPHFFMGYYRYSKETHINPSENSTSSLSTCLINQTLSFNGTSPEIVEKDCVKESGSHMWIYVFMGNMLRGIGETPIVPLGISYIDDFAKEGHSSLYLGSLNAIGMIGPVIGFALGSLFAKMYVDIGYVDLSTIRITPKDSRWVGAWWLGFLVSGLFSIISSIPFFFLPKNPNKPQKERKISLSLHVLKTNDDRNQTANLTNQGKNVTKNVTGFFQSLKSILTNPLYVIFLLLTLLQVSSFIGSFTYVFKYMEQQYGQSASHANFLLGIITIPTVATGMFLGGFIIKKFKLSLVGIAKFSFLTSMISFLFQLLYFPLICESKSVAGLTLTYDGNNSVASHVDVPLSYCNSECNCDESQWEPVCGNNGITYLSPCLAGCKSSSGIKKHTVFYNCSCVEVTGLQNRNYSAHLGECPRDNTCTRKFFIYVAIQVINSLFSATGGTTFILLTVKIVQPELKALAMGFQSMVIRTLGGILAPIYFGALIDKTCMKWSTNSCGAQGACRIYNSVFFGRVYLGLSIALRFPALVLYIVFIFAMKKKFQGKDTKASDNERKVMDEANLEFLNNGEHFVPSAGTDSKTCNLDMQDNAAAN
Text: as §1

MRP2 [3] = target: T3, MRP2 (Homo sapiens, UniProt Q92887)
Text: as §1

CYP3A4 = CYP3A4 (Homo sapiens, UniProt P08684)
P-gp = P-gp (Homo sapiens, UniProt P08183); settings: not told
OATP1B1 [4] = target: T1, OATP1B1; remark: listed apart in the source
Text: as §1

OATP1B3 [5] = target: T2, OATP1B3; remark: listed apart in the source
Text: as §1

MRP2 [6] = target: T3, MRP2; settings: not told
Text: as §1

BSEP = BSEP (Homo sapiens, UniProt O95342)
NTCP = target: T4, NTCP (Homo sapiens, UniProt Q14973)
T4 sequence (Q14973 1-349): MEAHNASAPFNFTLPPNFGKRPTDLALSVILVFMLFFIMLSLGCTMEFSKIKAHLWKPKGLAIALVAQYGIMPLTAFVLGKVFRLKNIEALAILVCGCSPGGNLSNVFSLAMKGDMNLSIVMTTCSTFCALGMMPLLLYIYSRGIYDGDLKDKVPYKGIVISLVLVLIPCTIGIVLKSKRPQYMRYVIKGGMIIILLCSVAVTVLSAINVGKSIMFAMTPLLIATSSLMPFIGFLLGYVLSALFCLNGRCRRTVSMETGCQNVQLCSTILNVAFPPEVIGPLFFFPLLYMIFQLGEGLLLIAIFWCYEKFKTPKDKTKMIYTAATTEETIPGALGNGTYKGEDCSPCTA

UGT1A1 = target: T5, UGT1A1 (Homo sapiens, UniProt P22309)
T5 sequence (P22309 26-533): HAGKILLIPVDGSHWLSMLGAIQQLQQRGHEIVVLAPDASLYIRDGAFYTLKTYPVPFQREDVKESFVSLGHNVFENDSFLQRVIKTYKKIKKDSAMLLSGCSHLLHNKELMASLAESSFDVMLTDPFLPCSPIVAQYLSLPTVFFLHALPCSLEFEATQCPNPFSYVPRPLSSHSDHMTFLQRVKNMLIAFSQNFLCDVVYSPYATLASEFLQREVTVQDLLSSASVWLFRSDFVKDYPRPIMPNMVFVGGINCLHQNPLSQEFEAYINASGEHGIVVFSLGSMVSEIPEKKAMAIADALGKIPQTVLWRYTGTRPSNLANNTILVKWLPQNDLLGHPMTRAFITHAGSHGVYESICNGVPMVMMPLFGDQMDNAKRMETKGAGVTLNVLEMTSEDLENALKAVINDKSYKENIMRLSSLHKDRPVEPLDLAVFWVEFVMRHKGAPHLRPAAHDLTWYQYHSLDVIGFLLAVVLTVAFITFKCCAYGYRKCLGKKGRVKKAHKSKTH
Text: as §1

UGT2B7 = target: T6, UGT2B7 (Homo sapiens, UniProt P16662)
T6 sequence (P16662 24-529): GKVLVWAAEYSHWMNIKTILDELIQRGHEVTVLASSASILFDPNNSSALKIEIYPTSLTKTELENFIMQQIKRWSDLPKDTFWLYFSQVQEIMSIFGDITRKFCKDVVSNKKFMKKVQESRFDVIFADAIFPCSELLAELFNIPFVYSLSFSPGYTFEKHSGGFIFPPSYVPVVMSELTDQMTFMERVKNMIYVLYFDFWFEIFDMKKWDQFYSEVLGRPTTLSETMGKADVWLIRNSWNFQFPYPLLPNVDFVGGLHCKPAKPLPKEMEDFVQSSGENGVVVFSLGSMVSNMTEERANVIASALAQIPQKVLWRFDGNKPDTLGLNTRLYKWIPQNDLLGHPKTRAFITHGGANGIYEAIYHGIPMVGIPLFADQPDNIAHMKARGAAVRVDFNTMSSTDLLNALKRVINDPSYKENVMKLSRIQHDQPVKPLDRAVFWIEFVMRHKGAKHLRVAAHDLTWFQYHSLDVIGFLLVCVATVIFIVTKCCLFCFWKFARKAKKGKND

[7] = human, in vivo, po
[8] = human, in vivo, po; remark: listed apart in the source
HIV-1 = settings: in vitro; more potent than CsA; cited from earlier work

T3 sequence (Q92887 whole entry): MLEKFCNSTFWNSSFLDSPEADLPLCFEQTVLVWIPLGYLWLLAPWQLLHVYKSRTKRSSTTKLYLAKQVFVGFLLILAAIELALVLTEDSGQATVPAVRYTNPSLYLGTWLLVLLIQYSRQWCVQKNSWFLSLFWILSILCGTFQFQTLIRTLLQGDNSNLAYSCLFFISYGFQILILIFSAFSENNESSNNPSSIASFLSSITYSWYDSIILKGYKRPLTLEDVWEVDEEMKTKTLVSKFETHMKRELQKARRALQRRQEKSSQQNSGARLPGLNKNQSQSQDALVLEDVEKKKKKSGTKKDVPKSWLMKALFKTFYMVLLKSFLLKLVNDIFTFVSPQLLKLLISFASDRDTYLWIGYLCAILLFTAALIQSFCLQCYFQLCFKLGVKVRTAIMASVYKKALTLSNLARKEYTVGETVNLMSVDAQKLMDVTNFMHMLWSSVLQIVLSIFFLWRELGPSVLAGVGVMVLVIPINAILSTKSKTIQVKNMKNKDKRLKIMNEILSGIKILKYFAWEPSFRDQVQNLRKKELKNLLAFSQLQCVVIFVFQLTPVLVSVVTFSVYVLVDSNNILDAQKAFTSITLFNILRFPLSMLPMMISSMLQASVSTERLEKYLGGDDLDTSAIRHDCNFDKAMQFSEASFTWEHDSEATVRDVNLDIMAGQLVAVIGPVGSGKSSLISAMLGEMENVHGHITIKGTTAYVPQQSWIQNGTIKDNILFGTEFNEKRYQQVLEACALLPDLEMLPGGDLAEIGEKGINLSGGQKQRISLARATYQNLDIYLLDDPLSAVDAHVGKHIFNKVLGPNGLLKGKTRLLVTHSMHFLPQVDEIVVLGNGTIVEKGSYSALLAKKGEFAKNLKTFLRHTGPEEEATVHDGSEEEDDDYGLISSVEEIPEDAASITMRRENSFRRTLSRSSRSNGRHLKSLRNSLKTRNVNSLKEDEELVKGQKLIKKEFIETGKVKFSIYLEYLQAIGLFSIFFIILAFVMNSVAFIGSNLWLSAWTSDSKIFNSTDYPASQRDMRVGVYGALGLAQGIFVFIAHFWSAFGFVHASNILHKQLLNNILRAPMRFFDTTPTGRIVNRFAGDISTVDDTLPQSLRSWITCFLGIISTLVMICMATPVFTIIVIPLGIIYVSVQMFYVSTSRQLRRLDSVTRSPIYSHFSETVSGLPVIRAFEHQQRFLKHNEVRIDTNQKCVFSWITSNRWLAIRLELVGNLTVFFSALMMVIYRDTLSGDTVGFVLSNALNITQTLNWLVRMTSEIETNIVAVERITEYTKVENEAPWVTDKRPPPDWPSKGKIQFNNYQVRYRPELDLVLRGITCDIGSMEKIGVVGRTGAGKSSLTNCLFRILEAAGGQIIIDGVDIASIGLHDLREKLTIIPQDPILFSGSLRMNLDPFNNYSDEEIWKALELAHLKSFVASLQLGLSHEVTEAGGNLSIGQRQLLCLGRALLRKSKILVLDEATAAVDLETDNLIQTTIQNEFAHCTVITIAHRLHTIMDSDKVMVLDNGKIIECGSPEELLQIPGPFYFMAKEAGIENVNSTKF
BSEP, sequence (O95342 whole entry): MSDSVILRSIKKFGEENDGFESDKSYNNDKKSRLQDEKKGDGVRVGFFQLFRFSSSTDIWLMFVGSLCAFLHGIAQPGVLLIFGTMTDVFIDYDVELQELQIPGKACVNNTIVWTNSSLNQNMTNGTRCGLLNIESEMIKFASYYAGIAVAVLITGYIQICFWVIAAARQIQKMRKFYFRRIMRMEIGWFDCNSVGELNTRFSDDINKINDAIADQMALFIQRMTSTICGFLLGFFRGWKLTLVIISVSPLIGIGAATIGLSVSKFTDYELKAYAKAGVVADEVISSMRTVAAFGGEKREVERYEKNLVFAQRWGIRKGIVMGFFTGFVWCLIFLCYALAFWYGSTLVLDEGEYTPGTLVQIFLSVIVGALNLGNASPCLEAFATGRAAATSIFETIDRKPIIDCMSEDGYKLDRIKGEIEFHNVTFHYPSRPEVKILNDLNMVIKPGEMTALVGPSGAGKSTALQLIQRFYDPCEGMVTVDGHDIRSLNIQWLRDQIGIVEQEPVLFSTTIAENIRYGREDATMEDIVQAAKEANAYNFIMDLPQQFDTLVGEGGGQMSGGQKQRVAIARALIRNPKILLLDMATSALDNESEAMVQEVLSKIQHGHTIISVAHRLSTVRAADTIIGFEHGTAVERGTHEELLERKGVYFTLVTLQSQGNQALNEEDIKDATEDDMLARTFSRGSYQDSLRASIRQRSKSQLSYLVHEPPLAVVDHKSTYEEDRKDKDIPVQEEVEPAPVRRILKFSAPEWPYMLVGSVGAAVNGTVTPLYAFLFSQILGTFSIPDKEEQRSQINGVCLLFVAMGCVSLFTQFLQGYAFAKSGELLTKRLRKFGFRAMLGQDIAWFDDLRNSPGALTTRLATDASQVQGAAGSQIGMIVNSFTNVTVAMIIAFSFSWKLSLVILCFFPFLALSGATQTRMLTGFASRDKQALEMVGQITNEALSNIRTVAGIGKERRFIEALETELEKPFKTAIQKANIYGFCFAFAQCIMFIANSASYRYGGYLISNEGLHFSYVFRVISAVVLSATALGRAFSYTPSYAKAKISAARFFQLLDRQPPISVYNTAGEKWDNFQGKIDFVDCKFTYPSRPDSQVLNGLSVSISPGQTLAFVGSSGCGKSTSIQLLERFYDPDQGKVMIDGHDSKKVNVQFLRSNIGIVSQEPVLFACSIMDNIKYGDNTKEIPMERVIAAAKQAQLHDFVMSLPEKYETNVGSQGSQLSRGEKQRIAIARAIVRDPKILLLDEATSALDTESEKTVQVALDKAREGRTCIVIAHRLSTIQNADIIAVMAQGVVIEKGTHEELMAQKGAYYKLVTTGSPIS
CYP3A4, sequence (P08684 whole entry): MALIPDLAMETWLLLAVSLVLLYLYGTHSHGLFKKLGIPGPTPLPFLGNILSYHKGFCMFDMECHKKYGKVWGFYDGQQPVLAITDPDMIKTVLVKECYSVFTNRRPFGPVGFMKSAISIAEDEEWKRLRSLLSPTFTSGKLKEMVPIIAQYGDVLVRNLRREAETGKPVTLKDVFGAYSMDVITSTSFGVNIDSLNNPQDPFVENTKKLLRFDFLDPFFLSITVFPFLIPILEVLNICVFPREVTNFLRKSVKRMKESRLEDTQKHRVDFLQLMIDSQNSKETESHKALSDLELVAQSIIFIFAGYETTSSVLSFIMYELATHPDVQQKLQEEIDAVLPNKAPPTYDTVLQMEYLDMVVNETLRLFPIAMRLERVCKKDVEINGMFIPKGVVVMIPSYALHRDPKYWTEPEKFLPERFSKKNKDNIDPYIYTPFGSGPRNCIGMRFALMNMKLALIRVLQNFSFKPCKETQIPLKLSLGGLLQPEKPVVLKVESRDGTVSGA
P-gp, sequence (P08183 whole entry): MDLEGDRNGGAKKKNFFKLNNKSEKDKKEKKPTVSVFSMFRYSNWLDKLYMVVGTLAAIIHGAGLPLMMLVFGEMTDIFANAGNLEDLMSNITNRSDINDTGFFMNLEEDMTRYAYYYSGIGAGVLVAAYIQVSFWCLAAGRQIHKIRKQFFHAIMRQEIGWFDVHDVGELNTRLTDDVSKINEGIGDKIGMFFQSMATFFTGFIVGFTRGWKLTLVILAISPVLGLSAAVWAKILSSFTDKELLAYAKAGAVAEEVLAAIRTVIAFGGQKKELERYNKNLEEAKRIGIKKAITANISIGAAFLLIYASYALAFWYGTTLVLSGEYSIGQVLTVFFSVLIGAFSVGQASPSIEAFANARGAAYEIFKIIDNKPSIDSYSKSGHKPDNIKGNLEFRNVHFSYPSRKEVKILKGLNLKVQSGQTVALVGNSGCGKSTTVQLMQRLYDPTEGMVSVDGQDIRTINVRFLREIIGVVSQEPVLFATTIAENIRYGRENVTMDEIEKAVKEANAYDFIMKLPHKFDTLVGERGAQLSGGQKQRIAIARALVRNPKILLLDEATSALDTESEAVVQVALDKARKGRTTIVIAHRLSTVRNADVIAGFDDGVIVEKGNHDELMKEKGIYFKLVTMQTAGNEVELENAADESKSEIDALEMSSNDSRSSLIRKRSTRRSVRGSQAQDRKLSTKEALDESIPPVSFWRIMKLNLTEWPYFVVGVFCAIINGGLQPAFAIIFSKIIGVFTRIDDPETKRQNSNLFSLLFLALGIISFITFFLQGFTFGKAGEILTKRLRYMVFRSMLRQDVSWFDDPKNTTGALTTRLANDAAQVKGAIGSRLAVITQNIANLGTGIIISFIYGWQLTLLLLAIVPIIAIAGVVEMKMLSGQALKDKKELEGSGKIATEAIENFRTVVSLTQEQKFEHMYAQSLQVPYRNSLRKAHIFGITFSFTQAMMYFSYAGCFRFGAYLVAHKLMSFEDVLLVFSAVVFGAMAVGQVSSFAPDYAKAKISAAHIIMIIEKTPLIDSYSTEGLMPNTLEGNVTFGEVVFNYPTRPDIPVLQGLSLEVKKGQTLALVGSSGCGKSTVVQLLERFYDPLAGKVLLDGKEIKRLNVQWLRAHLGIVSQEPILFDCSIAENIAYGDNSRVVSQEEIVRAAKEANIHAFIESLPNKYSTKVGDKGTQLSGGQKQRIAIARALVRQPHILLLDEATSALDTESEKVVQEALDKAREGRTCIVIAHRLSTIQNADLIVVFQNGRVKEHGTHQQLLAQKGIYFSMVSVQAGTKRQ

## C/C=C/C[C@@H](C)[C@@H](O)[C@H]1C(=O)N[C@@H](CC)C(=O)N(C)[C@H](C)C(=O)N(CC)[C@@H](C(C)C)C(=O)N[C@@H](C(C)C)C(=O)N(C)[C@@H](CC(C)C)C(=O)N[C@@H](C)C(=O)N[C@H](C)C(=O)N(C)[C@@H](CC(C)C)C(=O)N(C)[C@@H](CC(C)C)C(=O)N(C)[C@@H](C(C)C)C(=O)N1C [alisporivir]
OATP1B1 [1]
  IC50: 700 nM
OATP1B3 [2]
  IC50: 700 nM
MRP2 [3]
  Ki: 5900 nM
CYP3A4
  inhibition of CYP3A4: time-dependent inhibitor of CYP3A4
P-gp
  inhibition of P-gp: inhibitor
OATP1B1 [4]
  inhibition of OATP1B1: inhibitor
OATP1B3 [5]
  inhibition of OATP1B3: inhibitor
MRP2 [6]
  inhibition of MRP2: inhibitor
BSEP
  inhibition of BSEP: inhibitor
NTCP
  inhibition of NTCP: inhibitor
CYP isozymes
  inducing effects on CYP isozymes: no inducing effects
UGT1A1
  inhibition of UGT1A1: does not inhibit
UGT2B7
  inhibition of UGT2B7: does not inhibit
[7]
  T1/2 when administered with telaprevir: shorter
[8]
  T1/2 when administered with boceprevir: shorter
HIV-1
  anti-HIV-1 potency relative to CsA: approximately 10 fold
